The text below walks through data of publication PMC9583322, “Vicinal Diaryl-Substituted Isoxazole and Pyrazole Derivatives with In Vitro Growth Inhibitory and In Vivo Antitumor Activity” (ACS Omega, 2022).

The test system of one data set is Huh7. In words: SRB cytotoxicity assay. Type of data set: cell-based, human. Conditions: 72 h treatment. As for the experimental part: (§1) HepG2, FOCUS, Hep3B, Mahlavu, Huh7, Hep40, and PLC-PRF-5 hepatocellular carcinoma cells; MCF-7, MDA-MB-231, MDA-MB-468, SKBR3, and ZR-75 breast cancer cells; and normal-like epithelial MCF-10A breast cells were cultured in low-glucose Dulbecco’s modified Eagle’s medium (DMEM) (Biological Industries-BI) supplemented with 10% fetal bovine serum (FBS) (Gibco/Thermo Fisher Scientific), 2 mM L-Glutamine (Gibco/Thermo Fisher Scientific), 100 Units/mL Penicillin/Streptomycin, and 0.1 mM non-essential amino acid (Gibco/Thermo Fisher Scientific). SNU475 hepatocellular carcinoma cells were maintained in RPMI (Biological Industries-BI) supplemented with 10% fetal bovine serum (FBS) (Gibco/Thermo Fisher Scientific), L-Glutamine (Gibco/Thermo Fisher Scientific), and 100 Units/mL Penicillin/Streptomycin, while ZR-75 breast cancer cells were cultured RPMI (Biological Industries-BI) supplemented with 10% fetal bovine serum (FBS) (Gibco/Thermo Fisher Scientific), 1× sodium pyruvate, and %4.5 glucose. Normal-like MCF-10A breast cells were sustained in DMEM/HAM’S F12 (Hyclone) supplemented with 10% fetal bovine serum (FBS) (Gibco/Thermo Fisher Scientific), EGF (20 ng/mL), Hydrocortisone ([…]), cholera toxin (100 ng/mL), insulin (10 μg/mL), and 100 Units/mL Penicillin/Streptomycin. The cells were cultivated at 37 °C in a humidified incubator under 5% CO2.
(§2) Mahlavu, FOCUS, SNU475 (1000 cell/well in 150 μL/well); Huh7, MCF7 (2500 cell/well in 150 μL/well); HepG2, Hep3B, SKBR3 (3000 cell/well in 150 μL/well); PLC-PRF-5, Hep40 (5000 cell/well in 150 μL/well); MDA-MB-231, MDA-MB-468, MCF10A (6000 cell/well in 150 μL/well); and ZR-75 (7500 cell/well in 150 μL/well) were cultured in 96-well plates and were inoculated in an incubator for 24 hours. The compounds were dissolved in dimethyl sulfoxide (DMSO) (Sigma, St Louis, MO) as a 20 mM stock solution. The treatment of cells with the compounds was done in a concentration range starting from 40 to 2.5 μM. The compounds which were below 2.5 μM were tested in a concentration range from 2.5 to 0.15 μM. End of the 72h compound treatment, the cells were fixed using 10% (v/v) trichloroacetic acid (MERCK) for an hour and washed with ddH2O, and left for air-drying. The fixed plates were stained with 50 μL of sulforhodamine B (SRB) solution (Sigma) at RT for 10 min. To remove unbound SRB dye, acetic acid was used to wash cells three times and left for drying. The protein-bound SRB was solubilized with 10 mM Tris-base (Sigma) and their absorbance was measured with a 96-well plate reader at 515 nm wavelength (ELx800, Biotek). The IC50 values of compounds were calculated in comparison with control group DMSO. Data with R^2 values larger than 0.9 are considered significant.

The next data set has as its system MCF7. Description: SRB cytotoxicity assay. Type of data set: cell-based, human. Conditions: 72 h treatment. As for the experimental part:
as §1, §2
(The SRB assay estimates cell density from bound dye.)

A further data set relates to Huh7 and MCF7. Description: SRB cytotoxicity, summary for both cell lines. Type of data set: cell-based. Conditions: Homo sapiens; one value or range for Huh7 and MCF7 together; read-out: IC50 against both cell lines. As for the experimental part: as §2
Another data set relates to Mahlavu. Description: SRB cytotoxicity assay. It is filed as cell-based, human. Conditions: Homo sapiens, Mahlavu, 72 h, 72 h treatment. As for the experimental part: as §1, §2
The subject of another data set is Huh7, Mahlavu and MCF7. Description: SRB cytotoxicity, summary for all three cell lines. Conditions: Homo sapiens; one value or range for Huh7, Mahlavu and MCF7 together; read-out: IC50 against all three cell lines. Type of data set: cell-based. As for the experimental part:
as §2

The structures appear in SMILES notation. pIC50: −log10 of the molar value.

What is called pIC50 is −log10 of the IC50, conventionally taken in molar units. Broadly, the melting point is the temperature of the solid-liquid transition. As for `Cc1onc(-c2ccc(OCc3ccccc3)cc2)c1-c1ccc(Cl)cc1` [compound 9, 3-(4-(Benzyloxy)phenyl)-4-(4-chlorophenyl)-5-methylisoxazole], the melting point lay in the range of 114.7 to 115.7 °C. Also, in the data set on Huh7, the pIC50 was below 4.70. In addition, the negative logarithm of the IC50 (pIC50) with Huh7 (Homo sapiens, Huh-7, 72 h) is at most 4.70. Further, the pIC50 in the data set with MCF7 (Homo sapiens, MCF7, 72 h) was below 4.70. The pIC50 in the data set on Huh7 and MCF7 is at most 4.70.

`Cc1cccc(COc2ccc(-c3noc(C)c3-c3ccc(Cl)cc3)cc2)c1` [compound 19, 4-(4-Chlorophenyl)-5-methyl-3-(4-((3-methylbenzyl)oxy)phenyl)isoxazole] had a melting point of 119.9 to 121 °C. The pIC50 in the data set on Huh7 (Homo sapiens, Huh-7, 72 h) is below 4.70. The pIC50 with MCF7 (Homo sapiens, MCF7, 72 h) was below 4.70. Moreover, in the data set on Huh7 and MCF7, the pIC50 was at most 4.70.

As for `Cc1ccc(COc2ccc(-c3noc(C)c3-c3ccc(Cl)cc3)cc2)cc1` [compound 24, 4-(4-Chlorophenyl)-5-methyl-3-(4-((4-methylbenzyl)oxy)phenyl)isoxazole], the melting point is 116.9 to 118.5 °C. The compound further had a pIC50 with Huh7 (Homo sapiens, Huh-7, 72 h) below 4.70. The pIC50 in the data set on MCF7 (Homo sapiens, MCF7, 72 h) is below 4.70. The pIC50 in the data set on Huh7 and MCF7 is at most 4.70.

Turning to `Cc1ccccc1COc1ccc(-c2noc(N)c2-c2ccc(Cl)cc2)cc1` [compound 65, 4-(4-Chlorophenyl)-3-(4-((2-methylbenzyl)oxy)phenyl)isoxazole-5-amine], the melting point lay within 163.1 to 165.6 °C. In the data set with Huh7 (Homo sapiens, Huh-7, 72 h), this compound had a pIC50 of 5.70. Besides, the negative-log IC50 (pIC50) in the data set with Mahlavu is 5.41. In the data set on MCF7 (Homo sapiens, MCF7, 72 h), this compound had a pIC50 of 5.44. Moreover, in the data set on Huh7, Mahlavu and MCF7, the pIC50 is 5.41 to 5.70.

`Cc1ccccc1COc1ccc(-c2c(-c3ccc(Cl)cc3)noc2C)cc1` [compound 67, 3-(4-Chlorophenyl)-5-methyl-4-(4-((2-methylbenzyl)oxy)phenyl)isoxazole] came in with a melting point of 84.5 to 86.5 °C. The compound also had a pIC50 in the data set with Huh7 (Homo sapiens, Huh-7, 72 h) below 4.70. Further, the pIC50 in the data set on Mahlavu is below 4.70. In the data set on MCF7 (Homo sapiens, MCF7, 72 h), this compound showed a pIC50 below 4.70. Also, in the data set on Huh7, Mahlavu and MCF7, the pIC50 was at most 4.70.

As for `Cc1cc(-c2ccc(OCc3ccccc3C)cc2)n(-c2ccc(Cl)cc2)n1` [compound 69, 1-(4-Chlorophenyl)-3-methyl-5-(4-((2-methylbenzyl)oxy)phenyl)-1H-pyrazole], the melting point was in the range of 111.8 to 113.6 °C. In the data set with Huh7 (Homo sapiens, Huh-7, 72 h), this compound showed a pIC50 of 5.70. Moreover, in the data set on Mahlavu, the pIC50 is 5.04. This compound showed a pIC50 in the data set with MCF7 (Homo sapiens, MCF7, 72 h) of 4.92. Further, the pIC50 with Huh7, Mahlavu and MCF7 is 4.84 to 6.15.

With `Cc1ccccc1COc1ccc(-c2[nH]ncc2-c2ccc(Cl)cc2)cc1` [compound 71, 4-(4-Chlorophenyl)-5-(4-((2-methylbenzyl)oxy)phenyl)-1H-pyrazole], the melting point was in the range of 127.8 to 129.8 °C. This compound showed a pIC50 in the data set with Huh7 (Homo sapiens, Huh-7, 72 h) of 5.08. In the data set with Mahlavu, this compound showed a pIC50 of 4.96. The same compound gave a pIC50 in the data set on MCF7 (Homo sapiens, MCF7, 72 h) of 4.76. Besides, the pIC50 in the data set on Huh7, Mahlavu and MCF7 is 4.84 to 6.15.

As for `Cc1ccccc1COc1ccc(-c2nn(C)cc2-c2ccc(Cl)cc2)cc1` [compound 72, 4-(4-Chlorophenyl)-1-methyl-3-(4-((2-methylbenzyl)oxy)phenyl)-1H-pyrazole], the melting point was in the range of 142.2 to 143.4 °C. The compound also had a pIC50 with Huh7 (Homo sapiens, Huh-7, 72 h) of 5.17. Besides, the pIC50 in the data set with Mahlavu is 4.92. Also, the pIC50 with MCF7 (Homo sapiens, MCF7, 72 h) is 4.84. For the same compound, in the data set on Huh7, Mahlavu and MCF7, the pIC50 is 4.84 to 6.15.

Compound `Cc1nc(-c2ccc(OCc3ccccc3C)cc2)c(-c2ccc(Cl)cc2)s1` [compound 75, 5-(4-Chlorophenyl)-2-methyl-4-(4-((2-methylbenzyl)oxy)phenyl)thiazole] displayed a melting point of 90.5 to 92.1 °C. Moreover, the negative logarithm of the IC50 (pIC50) in the data set on Huh7 (Homo sapiens, Huh-7, 72 h) is below 4.70. Further, the pIC50 in the data set with Mahlavu was below 4.70. The same compound had a pIC50 with MCF7 (Homo sapiens, MCF7, 72 h) below 4.70.

Consider `Cc1ccccc1COc1ccc(-n2nccc2-c2ccc(Cl)cc2)cc1` [compound 78, 5-(4-Chlorophenyl)-1-(4-((2-methylbenyl)oxy)phenyl)-1H-pyrazole], for which the melting point lay within 145.2 to 146.4 °C. In the data set on Huh7 (Homo sapiens, Huh-7, 72 h), this compound showed a pIC50 below 4.70. For the same compound, the pIC50 with Mahlavu is below 4.70. In the data set with MCF7 (Homo sapiens, MCF7, 72 h), the pIC50 is below 4.70.

`Cc1cc(-c2ccc(Cl)cc2)n(-c2ccc(OCc3ccccc3C)cc2)n1` [compound 79, 5-(4-Chlorophenyl)-3-methyl-1-(4-((2-methylbenyl)oxy)phenyl)-1H-pyrazole] displayed a melting point of 103.4 to 105.2 °C. In addition, the pIC50 with Huh7 (Homo sapiens, Huh-7, 72 h) is 5.41. Further, the pIC50 in the data set with Mahlavu is 5.02. In the data set with MCF7 (Homo sapiens, MCF7, 72 h), this compound gave a pIC50 of 4.93. Also, in the data set with Huh7, Mahlavu and MCF7, the pIC50 was 4.84 to 6.15.

`Cc1ccccc1COc1ccc(-c2ccnn2-c2ccc(Cl)cc2)nc1` [compound 86, 2-(1-(4-Chlorophenyl)-1H-pyrazol-5-yl)-5-((2-methylbenzyl)oxy)pyridine] yielded a melting point of 108.4 to 110.4 °C. For the same compound, in the data set with Huh7 (Homo sapiens, Huh-7, 72 h), the pIC50 is 5.70. Also, the pIC50 in the data set on Mahlavu was 5.15. Also, the pIC50 in the data set on MCF7 was 4.66. The pIC50 with MCF7 (Homo sapiens, MCF7, 72 h) is at most 4.70.

Take `Cc1ccccc1COc1ccc(-c2ccnn2-c2ccc(Cl)cc2)cn1` [compound 87, 5-(1-(4-Chlorophenyl)-1H-pyrazol-5-yl)-2-((2-methylbenzyl)oxy)pyridine]: the melting point lay within 126.5 to 127.8 °C. In the data set on Huh7 (Homo sapiens, Huh-7, 72 h), this compound gave a pIC50 below 4.70. This compound also showed a pIC50 in the data set on Mahlavu below 4.70. In the data set with MCF7 (Homo sapiens, MCF7, 72 h), the pIC50 was below 4.70.

On to `Cc1ccccc1COc1ccc(-c2ccnn2-c2ccc(Cl)cc2)c(F)c1` [compound 88, 1-(4-Chlorophenyl)-5-(2-fluoro-4-((2-methylbenzyl)oxy)phenyl)-1H-pyrazole], for which the melting point lay in the range of 131.8 to 132.8 °C. The same compound gave a pIC50 in the data set with Huh7 (Homo sapiens, Huh-7, 72 h) of 5.80. The same compound had a pIC50 with Mahlavu of 5.49. The compound further showed a pIC50 in the data set with MCF7 (Homo sapiens, MCF7, 72 h) of 5.19. For the same compound, the pIC50 in the data set on Huh7, Mahlavu and MCF7 was 5.19 to 5.80.

Compound `Cc1ccccc1COc1ccc(-c2ccnn2-c2ccc(Cl)cc2)cc1F` [compound 89, 1-(4-Chlorophenyl)-5-(3-fluoro-4-((2-methylbenzyl)oxy)phenyl)-1H-pyrazole] came in with a melting point of 95 to 95.4 °C. In the data set on Huh7 (Homo sapiens, Huh-7, 72 h), the pIC50 is below 4.70. In addition, the pIC50 in the data set on Mahlavu is below 4.70. The compound further showed a negative-log IC50 (pIC50) in the data set with MCF7 (Homo sapiens, MCF7, 72 h) below 4.70.

In the case of `Cc1ccccc1C(=O)Nc1ccc(-c2ccnn2-c2ccc(Cl)cc2)cc1` [compound 91, N-(4-(1-(4-Chlorophenyl)-1H-pyrazol-5-yl)phenyl)-2-methylbenzamide], the melting point was 179.1 to 180 °C. In addition, the pIC50 with Huh7 (Homo sapiens, Huh-7, 72 h) is below 4.70. In the data set with Mahlavu, this compound showed a pIC50 below 4.70. The compound also had a pIC50 in the data set on MCF7 (Homo sapiens, MCF7, 72 h) below 4.70.

`Cc1ccccc1CNc1ccc(-c2ccnn2-c2ccc(Cl)cc2)cc1` [compound 92, 4-(1-(4-Chlorophenyl)-1H-pyrazol-5-yl)-N-(2-methylbenzyl)aniline] showed a melting point of 141.5 to 142.8 °C. In the data set with Huh7 (Homo sapiens, Huh-7, 72 h), the pIC50 was 5.44. The compound further showed a pIC50 in the data set with Mahlavu of 5.35. In the data set with MCF7 (Homo sapiens, MCF7, 72 h), this compound had a pIC50 below 4.70.
